From US8604073B2, “Antimicrobial composition” (Ethicon, Inc., priority 2006, dated 2013)

How the values were obtained:
MRSA-006 = assay: Viable plate count, resistant bacteria, protocol of Example 1
Method: (§1) A portion of 0.05 ml of each dilution was added to 0.95 ml of bacterial culture (trypticase soy broth containing 10^6 CFU/ml).
MRSA used are MRSA-002 and MRSA-006.

MRSA 006 = assay: Zone of inhibition of treated Nu-Gel hydrogel squares on inoculated TSA agar
Method: (§2) The zone of inhibition, which is defined as the average distance in millimeter from four edges of the square and four edges of the clear zone around the square, was measured.

MRSE 51625 = assay: Viable plate count, resistant bacteria, protocol of Example 1
Method: as §1
MRSA used are MRSA-002 and MRSA-006.

MRSE 700563 [1] = assay: Zone of inhibition of treated Nu-Gel hydrogel squares on inoculated TSA agar
Method: as §2

MRSE 700563 [2] = assay: Viable plate count, resistant bacteria, protocol of Example 1
Method: as §1
MRSA used are MRSA-002 and MRSA-006.

MRSA-002 = assay: as above
Method: as §1
MRSA used are MRSA-002 and MRSA-006.

Compound: Cc1nnc(SCC2=C(C(=O)O)N3C(=O)[C@@H](NC(=O)Cn4cnnn4)[C@H]3SC2)s1 [Cefazolin (CF), Cefazolin]
- CFU/ml MRSA-006 (MRSA-006; 100 ppm): 1.4 × 10^5 CFU/ml
- Zone of inhibition (mm) MRSA 006 (MRSA 006; 60 ug/cm^2, 48 hours at 37° C.): 0 mm
- CFU/ml MRSE 51625 (MRSE 51625; 100 ppm): 1.5 × 10^6 CFU/ml
- Zone of inhibition (mm) MRSE 700563 (MRSE 700563 [1]; 60 ug/cm^2, 48 hours at 37° C.): 0 mm
- CFU/ml MRSE 700563 (MRSE 700563 [2]; 100 ppm): 1.5 × 10^8 CFU/ml
- CFU/ml MRSA-002 (MRSA-002; 100 ppm): 1.1 × 10^9 CFU/ml

Compound: CCCCCCCCCCCC(=O)N[C@@H](CCCN=C(N)N)C(=O)OCC.Cl [LAE, ethyl ester of the lauramide of the arginine monohydrochloride]
- CFU/ml MRSA-006 (MRSA-006; 5 ppm): 6.2 × 10^8 CFU/ml
- Zone of inhibition (mm) MRSA 006 (MRSA 006; 6 ug/cm^2, 48 hours at 37° C.): 0 mm
- CFU/ml MRSE 51625 (MRSE 51625; 5 ppm): 1.2 × 10^9 CFU/ml
- Zone of inhibition (mm) MRSE 700563 (MRSE 700563 [1]; 6 ug/cm^2, 48 hours at 37° C.): 0 mm
- CFU/ml MRSE 700563 (MRSE 700563 [2]; 5 ppm): 4.0 × 10^8 CFU/ml
- CFU/ml MRSA-002 (MRSA-002; 5 ppm): 5.0 × 10^6 CFU/ml

Compound: Polymixin B [Polymixin B (PY)]
- CFU/ml MRSA-006 (MRSA-006; 100 ppm): 1.2 × 10^9 CFU/ml
- Zone of inhibition (mm) MRSA 006 (MRSA 006; 60 ug/cm^2, 48 hours at 37° C.): 0 mm
- CFU/ml MRSE 51625 (MRSE 51625; 100 ppm): 6.2 × 10^8 CFU/ml
- Zone of inhibition (mm) MRSE 700563 (MRSE 700563 [1]; 60 ug/cm^2, 48 hours at 37° C.): 0 mm
- CFU/ml MRSE 700563 (MRSE 700563 [2]; 100 ppm): 1.2 × 10^9 CFU/ml
- CFU/ml MRSA-002 (MRSA-002; 100 ppm): 1.2 × 10^9 CFU/ml
